Data as given in the NIST ThermoML archive (doi:10.1016/j.tca.2008.10.020).
± gives the expanded uncertainty stated by the source.

Tests used:
[1] = Molar enthalpy of transition or fusion; conditions: Crystal 2; DSC
[2] = Crystal 2; DTA

**Q.** Which “Molar enthalpy of transition or fusion” value [1] does the source give for [Cl][Pt][Cl] [platinous chloride] here?
**A.** The value was 0.0399 ± 0.0227 kcal/mol.

**Q.** And the Triple point temperature [2]?
**A.** Its Triple point temperature is 660 ± 10 K.
